Laboratory results taken from the supplement of paper PMC5908809.

What was measured:
[1] = tested on: normal NK cells expanded with K562-aAPC; experiment: percent inhibition of viability; higher = more inhibition; details: 72 h, IL-2 2.5 ng/mL
Procedure: (§1)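 Drug sensitivity and resistance testing on K562-aAPC-expanded normal NK cells: 5 concentrations (10-fold steps over a 10,000-fold range), 72 h at 37 °C, viability by CellTiter-Glo normalised to DMSO and benzethonium chloride controls; DSS from the fitted curve.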

[2] = tested on: normal NK cells expanded with K562-aAPC; experiment: drug sensitivity score (DSS) (DSS units); higher = more sensitive; extreme values may be limits of the assay; details: 72 h; IL-2 2.5 ng/mL
Procedure: as §1

[3] = tested on: normal primary NK cells, pool 1 (3 donors), resting (IL-2 0 ng/mL); experiment: percent inhibition of viability; higher = more inhibition; details: 72 h
[4] = tested on: normal primary NK cells, pool 2 (3 donors) (IL-2 2.5 ng/mL); experiment: as above; details: 72 h
[5] = tested on: SNK-6 (IL-2 2.5 ng/mL); experiment: as above; details: 72 h
[6] = tested on: DERL-7 (IL-2 2.5 ng/mL); experiment: as above; details: 72 h
[7] = tested on: IMC-1 (IL-2 20 ng/mL); experiment: as above; details: 72 h
[8] = tested on: NK-92 (IL-2 2.5 ng/mL); experiment: as above; details: 72 h
[9] = tested on: KHYG-1 (IL-2 2.5 ng/mL); experiment: as above; details: 72 h
[10] = tested on: normal primary NK cells, pool 3 (3 donors) (IL-2 2.5 ng/mL); experiment: as above; details: 72 h
[11] = tested on: NK-YS (IL-2 2.5 ng/mL); experiment: as above; details: 72 h
[12] = tested on: NKL (IL-2 2.5 ng/mL); experiment: as above; details: 72 h
[13] = tested on: KAI3 (IL-2 2.5 ng/mL); experiment: as above; details: 72 h
[14] = tested on: normal primary NK cells, pool 1 (3 donors) (IL-2 2.5 ng/mL); experiment: as above; details: 72 h
[15] = tested on: YT (IL-2 2.5 ng/mL); experiment: as above; details: 72 h
[16] = tested on: normal primary NK cells, pool 1 (3 donors), resting (IL-2 0 ng/mL); experiment: drug sensitivity score (DSS) (DSS units); higher = more sensitive; extreme values may be limits of the assay; details: 72 h
[17] = tested on: normal primary NK cells, pool 2 (3 donors) (IL-2 2.5 ng/mL); experiment: as above; details: 72 h
[18] = tested on: SNK-6 (IL-2 2.5 ng/mL); experiment: as above; details: 72 h
[19] = tested on: DERL-7 (IL-2 2.5 ng/mL); experiment: as above; details: 72 h
[20] = tested on: IMC-1 (IL-2 20 ng/mL); experiment: as above; details: 72 h
[21] = tested on: NK-92 (IL-2 2.5 ng/mL); experiment: as above; details: 72 h
[22] = tested on: KHYG-1 (IL-2 2.5 ng/mL); experiment: as above; details: 72 h
[23] = tested on: normal primary NK cells, pool 3 (3 donors) (IL-2 2.5 ng/mL); experiment: as above; details: 72 h
[24] = tested on: NK-YS (IL-2 2.5 ng/mL); experiment: as above; details: 72 h
[25] = tested on: NKL (IL-2 2.5 ng/mL); experiment: as above; details: 72 h
[26] = tested on: KAI3 (IL-2 2.5 ng/mL); experiment: as above; details: 72 h
[27] = tested on: normal primary NK cells, pool 1 (3 donors) (IL-2 2.5 ng/mL); experiment: as above; details: 72 h
[28] = tested on: YT (IL-2 2.5 ng/mL); experiment: as above; details: 72 h

Nc1nccc(-c2c(-c3ccc(F)cc3)ncn2C2CCCCC2)n1 (max concentration tested 10000 nM)
percent inhibition of viability [%]
Details | 1 nM | 10 nM | 100 nM | 1000 nM | 10000 nM
[1] | -4.54 | -4.14 | 0.36 | -0.71 | 21.9
[3] | -19.6 | -29.4 | 3.3 | 5.1 | 33.2
[4] | -8.96 | -5.75 | 14 | 14.7 | 21.2
[5] | -26.2 | -7.24 | -4.71 | 7.8 | 64.1
[6] | -3.56 | -1.12 | -1.49 | 5.28 | 29
[7] | 0.25 | 1.14 | 3.57 | 3.69 | 3.74
[8] | 4.97 | -2.54 | 18.6 | 23.2 | 49.9
[9] | 4.98 | -0.44 | 4.5 | 3.42 | 31.7
[10] | -7.45 | -3.42 | 2.49 | 11.6 | 17
[11] | -3.68 | -2.41 | 3.69 | 14.9 | 47.6
[12] | -2.84 | 0.96 | 7.22 | -3.94 | -2.33
[13] | 3.53 | 23.9 | 60.5 | 90.9 | 66.9
[14] | -3.43 | -7.84 | 9.95 | 16.4 | 17.9
[15] | 4.57 | 3.69 | 9.54 | 15.5 | 35.5

Details | drug sensitivity score
[2] | 0.68
[16] | 2.37
[17] | 4.42
[18] | 4.81
[19] | 2.07
[20] | 0
[21] | 6.29
[22] | 1.98
[23] | 1.17
[24] | 4.44
[25] | 0
[26] | 25.2
[27] | 3.09
[28] | 3.49

Cc1ccccc1C(C(=O)NC1CCCCC1)N(C(=O)Cn1ccnc1C)c1cccc(F)c1 (stereo not given) [AGI-5198] (max concentration tested 10000 nM)
percent inhibition of viability [%]
Details | 1 nM | 10 nM | 100 nM | 1000 nM | 10000 nM
[1] | -2.75 | -1.08 | -4.23 | 1.75 | 3.84
[3] | 7.51 | -9.12 | -0.43 | -14.1 | -4.43
[4] | -13.6 | -0.73 | 3.47 | 6.75 | 9.8
[5] | 8.4 | 14.1 | -2.27 | 3.58 | 14.7
[6] | -2.01 | 0.12 | 2.86 | 4.19 | 4.9
[7] | -3.01 | 0.83 | 3.36 | -0.42 | 6.36
[8] | -13.7 | -5.86 | 2.38 | -10.7 | 12.8
[9] | 2.51 | 1.12 | 2.9 | 0.31 | 10.8
[10] | -10 | -4.39 | -0.6 | 2.48 | 5.96
[11] | 1.52 | -1.9 | 7.02 | -2.36 | 15.5
[12] | -11.8 | 5.55 | 4.44 | 6.62 | 15.3
[13] | 1.08 | -2.21 | 4.4 | -7.93 | 5.53
[14] | -4.32 | -10.5 | -2.82 | -8.59 | -1.32
[15] | 0.66 | 2.4 | 5.93 | 3.4 | 10.8

Details | drug sensitivity score
[2] | 0
[16] | 0
[17] | 0
[18] | 0.54
[19] | 0
[20] | 0
[21] | 0.01
[22] | 0
[23] | 0
[24] | 0.18
[25] | 0.33
[26] | 0
[27] | 0
[28] | 0

O=C(Nc1cccc(C(F)(F)F)c1)Nc1cc(S(=O)(=O)NC2CC2)ccc1-c1ccsc1 [AGI-6780] (max concentration tested 10000 nM)
percent inhibition of viability [%]
Details | 1 nM | 10 nM | 100 nM | 1000 nM | 10000 nM
[1] | -7.15 | -5.5 | -5.48 | -5.66 | 6.74
[3] | 2.29 | 1.29 | 13 | 17.2 | 44.5
[4] | -16 | -3.85 | -3.48 | 9.29 | 20.2
[5] | -7.22 | 11.7 | 2.33 | 11.1 | 32.3
[6] | 2.8 | 2.88 | 5.06 | 7.2 | 42.2
[7] | -3.83 | -6.4 | -1.13 | -1.96 | 12.3
[8] | -7.9 | -10.9 | -5.67 | 20.1 | 65.8
[9] | 0.2 | -3.96 | -1.95 | 2.69 | 43.5
[10] | -11.5 | -1.88 | -0.35 | 8.79 | 8.51
[11] | -0.22 | 0.5 | -0.98 | 2.65 | 23.1
[12] | -8.69 | -12.6 | -8.03 | -5.7 | 20.2
[13] | 7.81 | -7.37 | -5.02 | -1.47 | 24.4
[14] | -6.68 | -2.93 | 8.08 | 7.42 | 23.6
[15] | -2.18 | -6.24 | -5.3 | 5.28 | 46.9

Details | drug sensitivity score
[2] | 0
[16] | 4.5
[17] | 1.59
[18] | 2.72
[19] | 3.34
[20] | 0.03
[21] | 6.57
[22] | 2.61
[23] | 0
[24] | 1.21
[25] | 0.4
[26] | 0.81
[27] | 1.25
[28] | 3.31

CNC(=O)c1ccc(N2C(=S)N(c3cnc(C#N)c(C(F)(F)F)c3)C(=O)C23CCC3)cc1F [ARN 509] (max concentration tested 10000 nM)
percent inhibition of viability [%]
Details | 1 nM | 10 nM | 100 nM | 1000 nM | 10000 nM
[1] | 0.72 | 1.64 | 2.47 | 20 | 14.2
[3] | -0.17 | 11.7 | -4.44 | -10.2 | 15.5
[4] | -8.15 | -8.75 | -5.23 | -6.28 | 8.97
[5] | 16.7 | -1.7 | 14.6 | 33.1 | 24.3
[6] | 6.41 | -1.09 | -0.93 | -13.3 | -12.6
[7] | 2.81 | -1.31 | 5.83 | 9.26 | 16.9
[8] | -3.11 | -4.21 | 2.28 | -1.18 | 23
[9] | -1.73 | -3.05 | 1.87 | 8.59 | 9.64
[10] | -7.92 | -6.67 | -6.21 | -10.2 | 3.54
[11] | -3.22 | -1.75 | -0.61 | 1.75 | 15.7
[12] | -5.58 | -11.3 | -0.18 | -5.48 | 3.63
[13] | -2.56 | -12.9 | 0.32 | 4.54 | 27.9
[14] | -11.3 | 4.68 | -6.94 | -10.6 | 10.8
[15] | 2.58 | 2.98 | 4.62 | 0.81 | 10.2

Details | drug sensitivity score
[2] | 3.05
[16] | 0.11
[17] | 0
[18] | 7.62
[19] | 0
[20] | 0.78
[21] | 0.72
[22] | 0
[23] | 0
[24] | 0.46
[25] | 0
[26] | 1.88
[27] | 0
[28] | 0

COc1cc(N2CCC(N3CCN(C)CC3)CC2)ccc1Nc1ncnc(Nc2ccccc2S(=O)(=O)C(C)C)n1 [ASP3026] (max concentration tested 10000 nM)
percent inhibition of viability [%]
Details | 1 nM | 10 nM | 100 nM | 1000 nM | 10000 nM
[1] | 0.75 | -1.15 | 0.69 | 7.2 | 96.3
[3] | -11.5 | -0.46 | -1.76 | 10.4 | 39.3
[4] | -4.59 | -7.52 | 3.32 | -3.09 | 28.1
[5] | -14.8 | -8.98 | -26.5 | -35.9 | 8.43
[6] | 0.73 | -6.32 | 2.12 | 0.42 | 57.2
[7] | -8.57 | -5.26 | -7.48 | -3.28 | 98.9
[8] | -10.8 | -22.5 | -27.1 | -14.8 | 22.2
[9] | -6.71 | 0.13 | -0.92 | 10.2 | 61.3
[10] | 1.7 | -6.92 | 8.07 | 2.81 | 13.3
[11] | -5.41 | -0.07 | -1.63 | 6.41 | 44.9
[12] | -3.77 | -9.59 | 5.62 | 18.9 | 47.8
[13] | 5.1 | 3.91 | 7.67 | 16.4 | 42.7
[14] | -1.83 | 5.98 | 6.01 | 9.21 | 38.7
[15] | -2.02 | -0.55 | 1.22 | 12.5 | 69.4

Details | drug sensitivity score
[2] | 6.45
[16] | 3.53
[17] | 0.97
[18] | 0
[19] | 3.14
[20] | 5.24
[21] | 0.4
[22] | 5.05
[23] | 0.03
[24] | 3.39
[25] | 4.54
[26] | 3.79
[27] | 3.22
[28] | 5.89
